Experimental data reported in patent US20250304545A1, “WATER-SOLUBLE HETEROCYCLYL POLYMETHINE CHROMOPHORES” (The Regents of the University of California, priority 2022, published 2025).

Experiments:
[1] = Photophysical properties of exemplary compounds in DCM solution; assay type: physicochemical; details: for λmax (first value of the cell): first of two wavelengths; for λmax (second value of the cell): second of two wavelengths
SK-OV-3 tumors = experiment: Fluorescence tracking of growth of SK-OV-3 tumor xenografts; assay type: in vivo, mice; details: 39 days after xenograft, 4 h after i.v. OTL-38
Experimental: A375 or SK-OV-3 cells were grown to confluency and incubated with full media supplemented with 50 μM of AmmonChrom7 for 12 h. Cells were then incubated with full media for 6 h, followed by digestion with trypsin-EDTA. The cell pellet was further washed with PBS (×3). For A375 cells, stained or unstained cells were suspended in 1:1 PBS and Matrigel; 100 μL of cell suspension (3.3 million cells) were injected to each site. Tumor 2D-projected sizes A were monitored by caliper measurement of long diameter a and short diameter b of the tumors and estimated by the following equation:
For SK-OV-3 cells, cells were suspended in 1:1 PBS and Matrigel; 100 μL of cell suspension (2.5 million cells) was injected to each site. […]
(§1) Imaging instrument was installed according to published procedure, using an Allied Vision Goldeye G-032 Cool TEC2 camera with illumination from LU0975DLU350-S30AN03 (35 W, 975 nm laser) and LU0785D250-U70AN (25 W, 785 nm laser) Lumics laser units to record images at 14-bit depth. […] Fluorescence images were recorded with an 1100 nm long-pass filter unless otherwise noted. Dual-channel imaging (SulfoChrom7/ICG, or fluorescent imaging/bright field imaging) was performed with pulsed excitation that matches the detection window of the camera, or persistent ambient fluorescent lighting for bright field images to be subtracted as background in the fluorescence channel.

[2] = Bone imaging in mice with PhosphoChrom7; assay type: in vivo
Experimental: (§2) Animal experiments were conducted in conformity with guidelines from the University of California, Los Angeles with protocols approved by the Animal Research Committee (protocol number ARC-2018-047). Non-invasive whole mouse imaging was performed on athymic nude female mice (5-15 weeks old), purchased from Charles River Laboratories. Mice were anesthetized with inhaled 2-4% isoflurane. Tail vein injections were performed with a catheter assembled from a 29-gauge needle connected through plastic tubing to a syringe prefilled with isotonic saline solution. The bevel of the needle was then inserted into the tail vein and secured using tissue adhesive. The plastic tubing was then connected to a syringe (30-gauge needle) prefilled with the compound of interest. All solutions were filtered through a 0.22 μm syringe filter prior to i.v. injection.
(§3) Imaging instrument was installed according to published procedure, using an Allied Vision Goldeye G-032 Cool TEC2 camera with illumination from LU0975DLU350-S30AN03 (35 W, 975 nm laser) and LU0785D250-U70AN (25 W, 785 nm laser) Lumics laser units to record images at 14-bit depth. Illumination was adjusted to 100 mW/cm^2 for 975 nm and 50 mW/cm^2 for […]. Excitation was provided at 975 nm for Sulfo-, Ammon-, Zwit- and PhosphoChrom7, and at 785 nm for ICG. Fluorescence images were recorded with an 1100 nm long-pass filter unless otherwise noted. Dual-channel imaging (SulfoChrom7/ICG, or fluorescent imaging/bright field imaging) was performed with pulsed excitation that matches the detection window of the camera, or persistent ambient fluorescent lighting for bright field images to be subtracted as background in the fluorescence channel.
Images were processed using the Fiji distribution of ImageJ. All images were background subtracted to correct for non-linearities in the detector and/or excitation. […] Videos were saved as raw avi and cropped, frame-rate adjusted and compressed with FFmpeg. […]

[3] = Hydroxyapatite binding assay; details: 50 μM dye in bovine serum, sequential washes
Experimental: Hydroxyapatite powder was purchased from Acros Organics. To a suspension of 10 mg of hydroxyapatite in 100 μL of bovine serum was added 50 μM PhosphoChrom7 and the mixture was placed on a revolver for 30 min for initial binding, followed by centrifugation to remove supernatant. For washing, the pellet was resuspended in 100 μL of bovine serum by vortexing and placed on a revolver for 30 min followed by centrifugation to remove supernatant. The pellet was finally resuspended in 100 μL of bovine serum for imaging under the SWIR camera. For quantification, each centrifuge tube containing the suspension was recorded at the center of the illumination/viewing field to calculate mean fluorescence intensity at the bottom area of the tube.

[4] = Aggregation / monomeric dispersion by absorption spectra in water, MeOH/H2O and serum; assay type: physicochemical; details: for aggregation state: in water
Description: (§4) Absorption spectra were collected on a JASCO V-770 UV-visible/NIR spectrophotometer after blanking with the appropriate solvent. Photoluminescence spectra were obtained on a Horiba Instruments PTI QuantaMaster Series fluorometer. Fetal bovine serum (FBS) or bovine serum were purchased from Gibco. Quartz cuvettes (10 mm×10 mm) were used for absorption and photoluminescence measurements unless otherwise noted. All spectra were obtained at ambient temperature. Fluorescence quantum yield was measured with 830 nm excitation using Flav7 as a reference (ΦF=0.61%).

HEK293 cells [5] = experiment: MTT toxicity assay; assay type: cell-based; details: low concentrations
Experimental: HEK293 cells were split into three cultures as replicates. For each replicate, HEK293 cells were passed onto flat-bottomed 96-well plate to 40-50% confluency and left 6 h for adhesion. Different concentrations of compounds were added to the medium (1:40 dilution from aqueous stock solution) in quadruplicate and incubated for 18 h. After incubation, cells were treated with 100 μL of full media containing 0.5 mg/mL MTT for 2 h, followed by addition of 100 μL of aqueous solution containing 10% SDS and 1:1000 HCl. After 3-4 h incubation, cell viability was determined by measuring the absorbance at 490 nm using a plate reader.

[6] = Systemic vasculature SWIR imaging with SulfoChrom7, compared with ICG; assay type: in vivo, mice; details: for distribution within 30 min: co-injection of SulfoChrom7 and ICG, 10 nmol each i.v.
Experimental: as §2, §3
Images were processed using the Fiji distribution of ImageJ. All images were background subtracted to correct for non-linearities in the detector and/or excitation. […] Videos were saved as raw avi and cropped, frame-rate adjusted and compressed with FFmpeg. For dual-channel imaging, emission of the SulfoChrom7 and AmmonChrom7 in 785 nm channel was estimated to be 9.0% intensity of their 975 nm image as derived from the capillary experiment, and subtracted from the 785 nm channel.

Stability assay in FBS = assay type: in vitro ADME; details: over 2 days at 37° C. in FBS, 1 μM dye
Experimental: Dyes were diluted to 1 μM in 1 mL of FBS containing 0.02% w/v NaN3 and placed in disposable cuvettes. The cuvettes were sealed with parafilm and placed in 37° C. incubator until given time points. Absorption spectra were taken using the maximum absorption to represent the dye concentration. Each condition was performed in triplicate.

[7] = Biodistribution of water soluble SWIR fluorophores after i.v. injection; assay type: in vivo, mice; details: 20 nmol into tail vein
Experimental: as §2, with “The plastic tubing was then connected to a syringe (30-gauge needle) prefilled with the compound of interest. All solutions were filtered through a 0.22 μm syringe filter prior to i.v. injection.” left out
as §1, with “channel. […]” for “channel.”

HEK293 cells [8] = experiment: Uptake and retention of dyes in cells (absorbance of cell lysates); assay type: cell-based; details: 50 μM dye
Experimental: HEK293, SK-OV-3 or A375 cells were split into three cultures as replicates. For each replicate, cells were passed onto 12-well or 24-well plates and grown until ca. 80% confluency. Each well was incubated with 50 μM of AmmonChrom7 for 6 h, and the cells were washed with PBS and incubated in MEM medium supplemented with 1% FBS. At given time points, the cell media were removed and cells were lysed with lysis buffer (150 μL, containing 1% Triton X-100, 0.1% w/v SDS and 0.1% w/v sodium deoxycholate) and diluted with bovine serum (300 μL). The cell lysate was collected and frozen at −20° C. until analysis. To quantify dye content, maximum absorption was used to represent the dye concentration. Scattering was estimated and subtracted with absorption at 1050-1100 nm, using the following equation for fitting: […]

[9] = Photophysical characterization of Chrom7 dyes (absorption, emission, quantum yield); assay type: physicochemical
Description: as §4

[10] = Brightness comparison by SWIR imaging of dyes in FBS in capillaries; assay type: physicochemical
Experimental: as §3

[11] = in vivo; cited from earlier work
[12] = reference value; cited from earlier work

For `Cc1cc(C)cc(C2=C(/C=C/C3=CC(c4ccccc4)=[SH]c4cc(N(C)C)ccc43)CCC/C2=C\C=C2/C=C(c3ccccc3)Sc3cc(N(C)C)ccc32)c1` [DiMePh SFlav7], the ϕF [1] was 0.11 ± 0.01%, the “λmax (first value of the cell)” value [1] was 1079 nm and the “λmax (second value of the cell)” value [1] was 1107 nm.
In the case of `CC1(C)C(/C=C/C2=C(Oc3ccc(C[C@H](NC(=O)c4ccc(NCc5cnc6nc(N)[nH]c(=O)c6n5)cc4)C(=O)[O-])cc3)C(=C/C=C3\N(CCCCS(=O)(=O)[O-])c4ccc(S(=O)(=O)[O-])cc4C3(C)C)/CCC2)=[N+](CCCCS(=O)(=O)[O-])c2ccc(S(=O)(=O)[O-])cc21.[H+].[H+].[H+].[H+]` [OTL-38], the “specificity of tumor staining ex vivo” value (SK-OV-3 tumors) is reported as “much non-specific accumulation”.
With `Cc1ccccc1C1=C(C=Cc2cc(C(C)(C)C)[o+]c3cc(N(Cc4cn(CCCP(=O)(O)O)nn4)Cc4cn(CCCP(=O)(O)O)nn4)ccc23)CCCC1=CC=C1C=C(C(C)(C)C)Oc2cc(N(Cc3cn(CCCP(=O)(O)O)nn3)Cc3cn(CCCP(=O)(O)O)nn3)ccc21` [PhosphoChrom7] the “organ distribution on dissection” value ([2]; 54 h after i.v. injection) was “the liver is the major target of the dye”, the “time at which bone structures begin to feature” value ([2]; after i.v. injection) was 8 h and the clearance ([2]; compared to previous hydrophilic dyes) was “slightly faster clearance”. The binding towards hydroxyapatite [3] was “strong binding affinity”, the aggregation peak ([4]; in FBS) was 760 nm and the solubility ([4]; in FBS) was “lower than the Sulfo-, Ammon-, or ZwitChrom7”. The toxicity (HEK293 cells [5]) was “mild”.
In the case of `Cc1ccccc1C1=C(C=Cc2cc(C(C)(C)C)[o+]c3cc(N(Cc4cn(CCCS(=O)(=O)[O-])nn4)Cc4cn(CCCS(=O)(=O)[O-])nn4)ccc23)CCCC1=CC=C1C=C(C(C)(C)C)Oc2cc(N(Cc3cn(CCCS(=O)(=O)[O-])nn3)Cc3cn(CCCS(=O)(=O)[O-])nn3)ccc21.[Na+].[Na+].[Na+]` [SulfoChrom7], the “brightness ratio over ICG in veins, maximum over time” value ([6]; co-injection 10 nmol each, 1300 nm LP filter) is reported as 7-8 fold, the “distribution within 30 min” value [6] is reported as “still reflected the superficial vasculature map while also displaying liver accumulation” and the “amount of dye that enables video-rate imaging of liver and vasculature” value ([6]; tail vein, 33 fps, 1100 nm LP filter) is reported as 0.05 nmol. The “fraction of dye left” value (Stability assay in FBS) was “around ½”, the “distribution after 3 h” value [7] was “diffuse signal through the mouse body, but still with substantial liver accumulation” and the aggregation state [4] was “discernible monomer absorption”. For the same compound, the “cellular uptake (absorbance of cell lysates)” value (HEK293 cells [8]) was “minimal”, the εmax ([9]; in FBS) was 9.5 10^4 M^−1cm^−1 and the λmax ([9]; in FBS) was 963 nm. The φF ([9]; in FBS) was 0.0056 ± 0.0003, the εmax ([9]; in MeOH) was 16.5 ± 0.2 10^4 M^−1cm^−1 and the λmax ([9]; in MeOH) was 938 nm. The φF ([9]; in MeOH) was 0.0106 ± 0.0002, the “emission in 785 nm channel as intensity of the 975 nm image” value ([10]; derived from the capillary experiment) was 9.0% and the “SWIR brightness compared with ICG / among the dyes” value ([10]; in FBS, 975 nm excitation (ICG 785 nm)) was “brightest of the fluorophores”.
For `CN(C)c1ccc2c(c1)SC(c1ccccc1)=C/C2=C\C=C1/CCCC(/C=C/c2cc(-c3ccccc3)[s+]c3cc(N(C)C)ccc23)=C1c1cc(C(C)(C)C)cc(C(C)(C)C)c1` [DitBuPh SFlav7], the ϕF [1] was 0.11 ± 0.02%, the “λmax (first value of the cell)” value [1] was 1079 nm and the “λmax (second value of the cell)” value [1] was 1107 nm.
In the case of `Cc1ccccc1C1=C(C=Cc2cc(C(C)(C)C)[o+]c3cc(N(Cc4cn(CCC[N+](C)(C)CCCS(=O)(=O)[O-])nn4)Cc4cn(CCC[N+](C)(C)CCCS(=O)(=O)[O-])nn4)ccc23)CCCC1=CC=C1C=C(C(C)(C)C)Oc2cc(N(Cc3cn(CCC[N+](C)(C)CCCS(=O)(=O)[O-])nn3)Cc3cn(CCC[N+](C)(C)CCCS(=O)(=O)[O-])nn3)ccc21.[Cl-]` [ZwitChrom7], the “fraction of dye left” value (Stability assay in FBS) is reported as 1/10, the “distribution after 3 h” value [7] is reported as “diffuse signal through the mouse body, but still with substantial liver accumulation” and the aggregation state [4] is reported as “primarily aggregated”. The “cellular uptake (absorbance of cell lysates)” value (HEK293 cells [8]) was “minimal”, the quantum yield ([9]; in FBS) was 0.32% and the εmax ([9]; in FBS) was 11.5 10^4 M^−1cm^−1. For the same compound, the λmax ([9]; in FBS) was 960 nm, the φF ([9]; in FBS) was 0.0032 ± 0.0003 and the εmax ([9]; in MeOH) was 16.4 ± 0.4 10^4 M^−1cm^−1. For the same compound, the λmax ([9]; in MeOH) was 940 nm and the φF ([9]; in MeOH) was 0.0101 ± 0.0004.
In the case of `CC1(C)C(/C=C/C=C/C=C/C=C2\N(CCCCS(=O)(=O)O)c3ccc4ccccc4c3C2(C)C)=[N+](CCCCS(=O)(=O)[O-])c2ccc3ccccc3c21` [ICG, indocyanine green, reference compound], the “distribution within 30 min” value [6] is listed as “most ICG accumulated in the liver with secretion into the intestine, leaving negligible signal in the mouse body” and the “time of hepatobiliary clearance” value [11] is listed as at most 6 h.
In the case of `C#CCN(CC#C)c1ccc2c(c1)OC(C(C)(C)C)=C/C2=C\C=C1/CCCC(/C=C/c2cc(C(C)(C)C)[o+]c3cc(N(CC#C)CC#C)ccc23)=C1c1ccccc1C` [Propargyl-Chrom7], the εmax ([9]; in MeOH) is reported as 14 ± 1 10^4 M^−1cm^−1 and the λmax ([9]; in MeOH) is reported as 928 nm.
In the case of `CN(C)c1ccc2c(c1)OC(c1ccccc1)=C/C2=C\C=C1/CCCC(/C=C/c2cc(-c3ccccc3)[o+]c3cc(N(C)C)ccc23)=C1Cl` [Flav7], the “ΦF of the reference for fluorescence quantum yield” value [12] is listed as 0.61%.
